From paper PMC7316778 (Nature Communications, 2020)
Where “and” joins values, the source holds several entries; their conditions need not be identical. Equal entries are not always repeated. Where two headings read alike, the source gives them in different places.

Experiments:
Experiment in all cases: SelectScreen kinase assay
MAP3K19 (YSK4) = MAP3K19 (YSK4) (Homo sapiens, UniProt Q56UN5)
Experimental: (§1) Selectivity profiling assays were performed by the Invitrogen SelectScreen™ Services. […] The concentration of ATP was selected to be equal to the KM, unless indicated otherwise.

CDK6/cyclin D1 = CDK6/cyclin D1 (Homo sapiens, UniProt Q00534); conditions: 1 h, 1 μM WEL028, 1 h preincubation
Experimental: as §1

PI4K2B (PI4K2 beta) = PI4K2B (PI4K2 beta) (Homo sapiens, UniProt Q8TCG2); conditions: for Inhibition at 1 µM (%): PI4K2B (PI4K2 beta), Adapta, ATP 10
Sequence of PI4K2B (PI4K2 beta) (Q8TCG2 whole entry): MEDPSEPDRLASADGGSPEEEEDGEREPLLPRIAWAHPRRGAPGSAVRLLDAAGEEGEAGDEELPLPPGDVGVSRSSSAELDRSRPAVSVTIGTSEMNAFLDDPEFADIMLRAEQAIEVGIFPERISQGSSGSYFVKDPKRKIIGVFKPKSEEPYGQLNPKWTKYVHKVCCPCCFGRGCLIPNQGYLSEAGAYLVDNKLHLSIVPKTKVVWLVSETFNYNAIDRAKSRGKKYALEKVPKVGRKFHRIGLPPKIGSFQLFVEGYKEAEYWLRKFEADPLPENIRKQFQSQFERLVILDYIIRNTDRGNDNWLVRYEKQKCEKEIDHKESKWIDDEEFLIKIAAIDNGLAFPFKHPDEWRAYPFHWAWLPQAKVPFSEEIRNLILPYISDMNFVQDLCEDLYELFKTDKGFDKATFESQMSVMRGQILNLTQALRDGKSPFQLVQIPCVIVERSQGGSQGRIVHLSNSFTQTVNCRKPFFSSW
Experimental: as §1

EPHB3 = target: T1, EPHB3 (Homo sapiens, UniProt P54753); conditions: for Inhibition at 1 µM (%): EPHB3, ZLYTE, ATP Km app
T1 sequence (P54753 34-998): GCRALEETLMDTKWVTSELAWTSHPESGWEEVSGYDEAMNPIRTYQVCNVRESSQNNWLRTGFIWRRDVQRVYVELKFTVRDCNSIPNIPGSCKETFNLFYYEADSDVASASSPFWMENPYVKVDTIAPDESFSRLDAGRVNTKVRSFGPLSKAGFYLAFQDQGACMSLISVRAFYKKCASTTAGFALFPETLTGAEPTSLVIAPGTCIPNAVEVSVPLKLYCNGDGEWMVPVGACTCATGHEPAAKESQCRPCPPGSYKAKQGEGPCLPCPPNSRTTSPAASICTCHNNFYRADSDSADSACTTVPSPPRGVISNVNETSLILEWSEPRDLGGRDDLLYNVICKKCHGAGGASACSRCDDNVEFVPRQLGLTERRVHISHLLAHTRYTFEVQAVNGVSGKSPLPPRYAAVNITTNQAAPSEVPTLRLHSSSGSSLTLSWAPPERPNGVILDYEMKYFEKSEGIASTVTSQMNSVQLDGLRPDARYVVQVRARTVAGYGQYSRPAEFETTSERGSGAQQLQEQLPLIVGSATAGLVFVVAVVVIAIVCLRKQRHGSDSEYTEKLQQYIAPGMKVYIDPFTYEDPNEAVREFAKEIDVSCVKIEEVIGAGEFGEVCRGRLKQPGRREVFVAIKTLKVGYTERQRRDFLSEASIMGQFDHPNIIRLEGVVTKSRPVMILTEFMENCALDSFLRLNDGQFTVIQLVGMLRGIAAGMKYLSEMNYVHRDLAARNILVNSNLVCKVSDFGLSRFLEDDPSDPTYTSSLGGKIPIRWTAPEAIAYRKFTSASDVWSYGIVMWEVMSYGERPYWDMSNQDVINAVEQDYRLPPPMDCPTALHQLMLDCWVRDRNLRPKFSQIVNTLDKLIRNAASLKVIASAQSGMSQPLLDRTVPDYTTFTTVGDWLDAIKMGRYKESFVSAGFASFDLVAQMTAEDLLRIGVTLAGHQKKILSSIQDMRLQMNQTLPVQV
Experimental: as §1

GRK6 = GRK6 (Homo sapiens, UniProt P43250)
Experimental: as §1

CAMK2B (CaMKII beta) = CAMK2B (CaMKII beta) (Homo sapiens, UniProt Q13554)
Sequence of CAMK2B (CaMKII beta) (Q13554 whole entry): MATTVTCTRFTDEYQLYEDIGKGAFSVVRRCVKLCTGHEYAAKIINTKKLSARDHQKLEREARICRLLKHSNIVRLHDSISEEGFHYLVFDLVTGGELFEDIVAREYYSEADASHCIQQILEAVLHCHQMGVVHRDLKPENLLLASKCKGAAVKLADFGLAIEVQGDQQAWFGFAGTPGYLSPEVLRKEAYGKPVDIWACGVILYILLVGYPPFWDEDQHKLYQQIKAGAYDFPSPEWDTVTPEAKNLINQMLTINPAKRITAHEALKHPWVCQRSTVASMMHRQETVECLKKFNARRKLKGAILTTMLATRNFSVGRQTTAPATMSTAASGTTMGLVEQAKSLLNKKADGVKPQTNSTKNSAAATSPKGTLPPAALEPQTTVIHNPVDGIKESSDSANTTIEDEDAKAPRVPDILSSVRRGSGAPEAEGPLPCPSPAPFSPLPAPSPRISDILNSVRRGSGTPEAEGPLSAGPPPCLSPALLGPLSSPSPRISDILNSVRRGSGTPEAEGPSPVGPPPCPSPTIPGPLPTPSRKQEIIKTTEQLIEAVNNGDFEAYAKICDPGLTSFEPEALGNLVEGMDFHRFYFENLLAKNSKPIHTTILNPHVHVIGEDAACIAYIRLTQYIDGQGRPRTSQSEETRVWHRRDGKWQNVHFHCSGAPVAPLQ
Experimental: as §1

CDK4/cyclin D1 = CDK4/cyclin D1 (Homo sapiens, UniProt P11802); conditions: for Inhibition at 1 µM (%): CDK4/cyclin D1, Adapta, ATP 10
Sequence of CDK4/cyclin D1 (P11802 whole entry): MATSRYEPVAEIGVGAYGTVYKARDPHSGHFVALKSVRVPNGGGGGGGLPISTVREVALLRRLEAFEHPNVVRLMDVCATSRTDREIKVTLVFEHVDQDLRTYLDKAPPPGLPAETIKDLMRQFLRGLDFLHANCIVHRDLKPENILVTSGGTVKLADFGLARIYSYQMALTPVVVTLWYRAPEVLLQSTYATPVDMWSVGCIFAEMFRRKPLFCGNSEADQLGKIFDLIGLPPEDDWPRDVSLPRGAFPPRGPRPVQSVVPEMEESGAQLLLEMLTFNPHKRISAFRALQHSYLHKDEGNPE
Sequence of CDK4/cyclin D1 (P24385 whole entry partner): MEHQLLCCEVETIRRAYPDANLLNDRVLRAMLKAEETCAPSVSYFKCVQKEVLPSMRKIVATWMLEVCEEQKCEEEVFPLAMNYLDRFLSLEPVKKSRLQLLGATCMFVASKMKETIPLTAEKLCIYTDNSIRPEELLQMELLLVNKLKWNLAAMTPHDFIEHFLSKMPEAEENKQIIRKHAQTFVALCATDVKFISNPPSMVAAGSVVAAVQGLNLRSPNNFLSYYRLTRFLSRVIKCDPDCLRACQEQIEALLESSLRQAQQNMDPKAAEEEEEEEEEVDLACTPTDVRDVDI
Experimental: as §1

RPS6KA5 (MSK1) = RPS6KA5 (MSK1) (Homo sapiens, UniProt O75582)
Experimental: as §1

CAMK1G (CAMKI gamma) = CAMK1G (CAMKI gamma) (Homo sapiens, UniProt Q96NX5); conditions: for Inhibition at 1 µM (%): CAMK1G (CAMKI gamma), ZLYTE, ATP Km app
Sequence of CAMK1G (CAMKI gamma) (Q96NX5 whole entry): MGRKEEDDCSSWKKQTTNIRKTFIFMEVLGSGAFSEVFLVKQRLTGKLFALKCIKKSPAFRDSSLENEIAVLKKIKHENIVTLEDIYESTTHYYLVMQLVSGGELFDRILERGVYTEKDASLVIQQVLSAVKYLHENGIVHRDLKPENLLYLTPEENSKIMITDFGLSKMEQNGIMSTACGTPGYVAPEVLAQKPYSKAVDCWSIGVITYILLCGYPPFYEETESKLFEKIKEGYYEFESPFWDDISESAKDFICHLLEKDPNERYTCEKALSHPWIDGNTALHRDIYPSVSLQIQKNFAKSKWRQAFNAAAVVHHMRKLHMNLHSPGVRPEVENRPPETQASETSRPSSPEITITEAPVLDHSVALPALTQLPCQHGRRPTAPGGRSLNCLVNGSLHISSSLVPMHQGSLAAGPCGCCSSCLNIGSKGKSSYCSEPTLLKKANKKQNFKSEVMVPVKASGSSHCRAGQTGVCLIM
Experimental: as §1

VRK2 = VRK2 (Homo sapiens, UniProt Q86Y07)
Sequence of VRK2 (Q86Y07 whole entry): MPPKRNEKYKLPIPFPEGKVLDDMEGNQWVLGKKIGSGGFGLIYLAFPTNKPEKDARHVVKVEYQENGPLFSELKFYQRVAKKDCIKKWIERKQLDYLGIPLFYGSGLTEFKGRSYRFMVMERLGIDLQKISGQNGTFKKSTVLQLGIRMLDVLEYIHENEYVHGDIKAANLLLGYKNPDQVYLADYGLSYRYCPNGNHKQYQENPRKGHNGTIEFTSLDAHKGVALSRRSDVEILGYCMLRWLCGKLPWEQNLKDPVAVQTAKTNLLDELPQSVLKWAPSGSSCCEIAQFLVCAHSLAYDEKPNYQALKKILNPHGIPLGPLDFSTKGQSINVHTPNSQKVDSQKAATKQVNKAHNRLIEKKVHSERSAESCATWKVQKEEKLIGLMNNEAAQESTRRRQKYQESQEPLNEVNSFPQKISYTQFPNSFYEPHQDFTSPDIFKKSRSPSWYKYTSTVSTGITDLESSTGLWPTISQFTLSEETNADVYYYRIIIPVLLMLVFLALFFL
Experimental: as §1

PKMYT1 = target: T2, PKMYT1 (Homo sapiens, UniProt Q99640)
T2 sequence (Q99640 1-499): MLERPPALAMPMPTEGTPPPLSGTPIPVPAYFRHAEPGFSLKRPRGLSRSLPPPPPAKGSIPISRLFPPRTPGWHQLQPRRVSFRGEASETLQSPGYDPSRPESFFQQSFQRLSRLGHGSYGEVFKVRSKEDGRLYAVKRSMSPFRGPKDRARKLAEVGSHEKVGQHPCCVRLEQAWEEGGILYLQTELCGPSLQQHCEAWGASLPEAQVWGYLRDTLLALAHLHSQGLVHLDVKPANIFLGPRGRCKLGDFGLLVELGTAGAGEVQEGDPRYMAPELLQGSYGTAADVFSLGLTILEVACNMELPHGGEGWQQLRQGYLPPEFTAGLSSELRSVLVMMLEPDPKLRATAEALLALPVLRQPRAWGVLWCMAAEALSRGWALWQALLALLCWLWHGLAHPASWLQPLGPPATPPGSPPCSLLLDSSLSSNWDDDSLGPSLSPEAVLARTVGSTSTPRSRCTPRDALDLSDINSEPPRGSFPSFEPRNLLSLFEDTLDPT
Experimental: as §1

PLK3 = PLK3 (Homo sapiens, UniProt Q9H4B4)
Sequence of PLK3 (Q9H4B4 whole entry): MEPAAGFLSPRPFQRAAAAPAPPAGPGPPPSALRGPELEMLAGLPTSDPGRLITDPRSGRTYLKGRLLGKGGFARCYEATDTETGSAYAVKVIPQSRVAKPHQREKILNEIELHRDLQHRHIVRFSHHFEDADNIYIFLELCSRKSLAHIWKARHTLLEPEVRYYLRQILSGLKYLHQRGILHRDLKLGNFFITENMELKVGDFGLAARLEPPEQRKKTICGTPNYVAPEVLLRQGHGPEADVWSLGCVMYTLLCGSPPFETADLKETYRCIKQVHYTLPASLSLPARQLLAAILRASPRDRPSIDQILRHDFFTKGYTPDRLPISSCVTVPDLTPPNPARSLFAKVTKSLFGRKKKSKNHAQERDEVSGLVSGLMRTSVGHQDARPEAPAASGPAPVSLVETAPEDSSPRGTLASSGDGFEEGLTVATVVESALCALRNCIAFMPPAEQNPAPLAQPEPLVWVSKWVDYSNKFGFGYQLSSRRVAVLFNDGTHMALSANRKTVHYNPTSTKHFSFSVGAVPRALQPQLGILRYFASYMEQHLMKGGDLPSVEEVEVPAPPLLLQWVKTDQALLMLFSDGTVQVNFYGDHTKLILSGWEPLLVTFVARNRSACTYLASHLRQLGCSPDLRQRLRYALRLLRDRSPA
Experimental: as §1

[1] = 1 h, 1 μM WEL028, 1 h preincubation

Sequence of MAP3K19 (YSK4) (Q56UN5 whole entry): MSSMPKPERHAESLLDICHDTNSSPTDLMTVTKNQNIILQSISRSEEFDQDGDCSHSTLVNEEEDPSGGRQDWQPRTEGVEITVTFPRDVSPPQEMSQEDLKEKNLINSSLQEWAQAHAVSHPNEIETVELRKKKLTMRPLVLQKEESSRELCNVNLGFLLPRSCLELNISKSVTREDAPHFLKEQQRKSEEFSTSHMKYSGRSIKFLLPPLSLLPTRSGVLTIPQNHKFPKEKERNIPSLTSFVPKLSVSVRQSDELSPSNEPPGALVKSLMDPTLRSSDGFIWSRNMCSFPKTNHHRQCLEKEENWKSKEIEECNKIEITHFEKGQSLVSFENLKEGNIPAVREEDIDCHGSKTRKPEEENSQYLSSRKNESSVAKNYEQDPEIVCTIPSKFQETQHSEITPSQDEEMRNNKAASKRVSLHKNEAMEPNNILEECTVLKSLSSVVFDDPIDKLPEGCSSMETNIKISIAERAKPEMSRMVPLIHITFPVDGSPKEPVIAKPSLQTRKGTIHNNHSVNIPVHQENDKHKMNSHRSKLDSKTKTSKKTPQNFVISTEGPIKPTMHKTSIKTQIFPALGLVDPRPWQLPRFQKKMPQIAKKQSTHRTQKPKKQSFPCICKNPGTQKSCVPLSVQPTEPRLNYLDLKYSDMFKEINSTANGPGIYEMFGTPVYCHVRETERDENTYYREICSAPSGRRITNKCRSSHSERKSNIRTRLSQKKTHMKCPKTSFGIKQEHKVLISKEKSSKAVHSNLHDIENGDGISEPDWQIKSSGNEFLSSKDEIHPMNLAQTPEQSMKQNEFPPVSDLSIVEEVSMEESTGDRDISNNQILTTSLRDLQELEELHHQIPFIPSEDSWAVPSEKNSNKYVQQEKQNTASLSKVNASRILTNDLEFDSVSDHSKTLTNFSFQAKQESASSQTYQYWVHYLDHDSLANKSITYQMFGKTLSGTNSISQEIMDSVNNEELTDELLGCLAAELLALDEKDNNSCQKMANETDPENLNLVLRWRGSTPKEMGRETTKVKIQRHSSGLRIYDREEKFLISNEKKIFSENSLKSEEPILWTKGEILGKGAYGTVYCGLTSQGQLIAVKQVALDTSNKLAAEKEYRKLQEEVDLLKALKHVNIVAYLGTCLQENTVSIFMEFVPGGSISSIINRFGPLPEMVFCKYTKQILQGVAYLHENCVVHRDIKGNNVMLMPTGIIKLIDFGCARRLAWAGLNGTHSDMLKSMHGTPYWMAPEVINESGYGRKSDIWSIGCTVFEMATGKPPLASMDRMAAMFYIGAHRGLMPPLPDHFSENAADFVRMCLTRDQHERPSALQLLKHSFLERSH

Compound: C#CCOc1ccc(Nc2ncc(Cl)c(Nc3ccccc3NC(=O)C=C)n2)c(OC)c1 [Compound 6]
- inhibition at 1 µM (MAP3K19 (YSK4); [1]): 0%
- Inhibition at 1 µM (%) (MAP3K19 (YSK4); MAP3K19 (YSK4), 1 µM, ZLYTE, ATP Km app, listed as WEL028, 1 µM): -1% and 1%
- inhibition at 1 µM (CDK6/cyclin D1): -6%
- inhibition at 1 µM (PI4K2B (PI4K2 beta); [1]): 2%
- Inhibition at 1 µM (%) (PI4K2B (PI4K2 beta)): 3%
- Inhibition at 1 µM (%) (PI4K2B (PI4K2 beta); listed as WEL028, 1 µM): 0%
- inhibition at 1 µM (EPHB3; [1]): 1%
- Inhibition at 1 µM (%) (EPHB3): 2%
- Inhibition at 1 µM (%) (EPHB3; listed as WEL028, 1 µM): 0%
- inhibition at 1 µM (GRK6; 1 h): 0%
- inhibition at 1 µM (GRK6; read-out: Inhibition at 1 µM (%)): 0%
- inhibition at 1 µM (CAMK2B (CaMKII beta); [1]): 0%
- Inhibition at 1 µM (%) (CAMK2B (CaMKII beta); CAMK2B (CaMKII beta), 1 µM, ZLYTE, ATP Km app, listed as WEL028, 1 µM): -1% and 1%
- inhibition at 1 µM (CDK4/cyclin D1; [1]): -10%
- Inhibition at 1 µM (%) (CDK4/cyclin D1): -14%
- Inhibition at 1 µM (%) (CDK4/cyclin D1; listed as WEL028, 1 µM): -6%
- Inhibition at 1 µM (%) (RPS6KA5 (MSK1); 1 µM, ZLYTE, ATP Km app): -13%
- inhibition at 1 µM (RPS6KA5 (MSK1); [1]): -7%
- inhibition at 1 µM (CAMK1G (CAMKI gamma); [1]): 2%
- Inhibition at 1 µM (%) (CAMK1G (CAMKI gamma)): 3%
- Inhibition at 1 µM (%) (CAMK1G (CAMKI gamma); listed as WEL028, 1 µM): 1%
- Inhibition at 1 µM (%) (VRK2; 1 µM, LanthaScreen Binding, listed as WEL028, 1 µM): 19%
- inhibition at 1 µM (VRK2; [1]): 16%
- inhibition at 1 µM (VRK2; read-out: Inhibition at 1 µM (%), 1 µM, LanthaScreen Binding): 14%
- Inhibition (%) (PKMYT1; 1 μM WEL028, 1 h preincubation): 13%
- Inhibition at 1 µM (%) (PKMYT1; PKMYT1, 1 µM, LanthaScreen Binding, listed as WEL028, 1 µM): 9%
- inhibition at 1 µM (PKMYT1; read-out: Inhibition at 1 µM (%), PKMYT1, 1 µM, LanthaScreen Binding): 17%
- inhibition at 1 µM (PLK3; [1]): -1%
- Inhibition at 1 µM (%) (PLK3; PLK3, 1 µM, ZLYTE, ATP Km app, listed as WEL028, 1 µM): 2% and -3%
